Data reported in patent US4582821A, “Inhibition of cyclic nucleotide independent protein kinases” (E. I. Du Pont de Nemours and Company, priority 1983, dated 1986).

What was measured:
[1] = test system: EGF-mediated tyrosine phosphorylation in Triton extracts of A-431 cell membranes; assay: Phosphoamino acid analysis of labeled Triton extracts of A-431 cell membranes; assay type: biochemical, human; conditions: for Total Phosphoprotein / P-serine radioactivity / P-threonine radioactivity / P-tyrosine radioactivity: 349 nmoles/mg protein; for Total Phosphoprotein: 1/7 aliquot
Protocol: Triton extracts of A-431 cell membranes, prepared substantially as described previously, containing 37.5 μg protein, were labeled with [γ-^32 P] ATP (5 μM, 5 μCi) for 3 minutes at 0° in the presence and absence of Boc-LeuCH2 Br (349 nmoles/mg protein). Protein samples were hydrolyzed and phosphoamino acids were separated by the following procedure.
After labeling, membrane proteins were treated with 10% trichloroacetic acid (TCA) containing 10 mM sodium pyrophosphate and 100 μg BSA. After incubation for one hour at 0°, the foregoing mixture was centrifuged at 3,000 rpm and the resulting pellet washed 3 times with 10% TCA/10 mM sodium pyrophosphate. After recentrifugation, the final pellet was washed with ethanol, dried under vacuum, and dissolved in 70 μL of 0.1N NaOH prior to transfer to glass test tubes containing 0.5 mL 6N hydrochloric acid. The tubes were sealed under vacuum and samples were hydrolyzed at 100° for one hour. The resulting hydrolysates were lyophilized, resuspended in 30 μL water and electrophoresed on Whatman 3MM paper for 3 hours at 3,000 V, at pH 3.5 in 5% acetic acid/0.5% pyridine. Phosphotyrosine, phosphoserine, and phosphothreonine (10 μg of each) were employed as markers. Following electrophoresis, spots corresponding to the foregoing phosphoamino acids were located by ninhydrin treatment, excised, and bleached with 6% hydrogen peroxide. Radioactivity of the spots was determined by scintillation counting and expressed as cpm. Total phosphoprotein of a 1/7 aliquot of each reaction mixture was determined as previously described.

p130^fps = target: T1, p130^fps (UniProt P00530+P03323); assay: Immune complex phosphorylation by p130fps immunoprecipitates of FSV-transformed cells; assay type: biochemical, Fujinami sarcoma virus (FSV); conditions: for Activity (cpm), FSV: anti-gag immunoprecipitates, no inhibitor 27036; for Activity (cpm), Control: extracts immunoprecipitated with normal serum, no inhibitor 2624
T1 construct: anti-gag serum and Staphylococcus protein A suspension (for FSV-transformed cells); viral gag-derived N-terminal portion (natural gag-fps fusion); expressed in transfected cells; immune complex with anti-gag serum and Staphylococcus protein A
Protocol: In this experiment, Boc-LeuCH2 Br was tested as an inhibitor of pp60^src and p130^fps, the tyrosine-specific protein kinases encoded by the transforming genes of RSV and Fujinami sarcoma virus, respectively.
These viral gene products were partially purified by preparation of immune complexes substantially according to the technique described by Collett et al., Proc. Nat. Acad. Sci. USA 75:2021 (1978). In this procedure, immunoprecipitates are prepared by incubation of extracts of virus-transformed cells with tumor-bearing rabbit serum (TBR) and Staphylococcus protein A suspension (for RSV-transformed cells) or anti-gag serum and Staphylococcus protein A suspension (for FSV-transformed cells).
Assay mixtures contained, in a final volume of 70 μL, 100 μg of immune complex protein, 20 mM Hepes, pH 7.4, and 1 mM MnCl2. Phosphorylation was initiated by addition of 1 μM (4 μCi) [γ-^32 P] ATP. After 10 minutes at about 23°, reactions were terminated by pipetting 20 μL aliquots of assay mixture onto 2×2 cm squares of Whatman 3 MM filter paper, which were immediately suspended in 10% TCA/10 mM sodium pyrophosphate. […] Controls for the immunoprecipitation procedure were prepared by immunoprecipitating transformed cell extracts with normal serum. Values in parentheses represent specific phosphorylation induced by virus-transformed cells.
In a related experiment, the capacity of Boc-LeuCH2 Br to inhibit phosphorylation of casein by p130^fps was determined. These tests were conducted substantially as described above, except 1 mg/mL casein was added to assay mixtures as a substrate, and reactions were terminated by addition of 2.5 mM unlabeled ATP and immediate cooling to 0°. Phosphorylated casein was separated from immunoprecipitate suspensions by centrifugation at 3,000 xg for 3 minutes. The resulting pellets were resuspended in 70 μL of 10 mM Hepes, pH 7.5, and 20 μL aliquots were pipetted onto filter paper squares as previously described.
This experiment was conducted substantially according to the procedures described in Example 17, above. In Table 5, "FSV" refers to immunoprecipitates of FSV-transformed cell extracts prepared by addition of anti-gag serum; controls were extracts immunoprecipitated with normal serum.

lymphoma cell line YAC-1 = assay: Tumor cell line growth inhibition, YAC-1; assay type: cell-based
Protocol: (§1) In this series of experiments, the tumor cell growth inhibitory capacity of various peptide halomethyl ketones was tested against lymphoma cell lines YAC-1 and MOLT-4, and against an erythroleukemia cell line, K-562. The lymphoma cell line YAC-1 is described by Kiessling, et al., Eur. J. Immunol. 5:112 (1975), and MOLT-4 is described by Minowada, et al., J. Natl. Cancer Inst. 49:891 (1972) and Nilsson, et al., Int. J. Cancer 15:321 (1975). The erythroleukemia cell line K-562 is described by Lozzio, et al., Leuk. Res. 3:363 (1979). In these experiments, cells were grown on standard media as 10 mL suspension cultures. Initial cell density was 10^5 cells/mL. At day 0, test compounds were introduced in ethanol; control cultures received an equal volume of ethanol. Cells were counted at the times indicated.

[2] = test system: erythroleukemia cell line K-562; assay: Tumor cell line growth inhibition, K-562; assay type: cell-based
Protocol: as §1

CC(C)CC(NC(=O)OC(C)(C)C)C(=O)CBr (stereo not shown) [Boc-LeuCH2 Br]
Total Phosphoprotein ([1]; EGF absent, control 3408): 2024 cpm
P-serine radioactivity ([1]; EGF absent, control 328): 300 cpm
P-threonine radioactivity ([1]; EGF absent, control 1100): 1180 cpm
P-tyrosine radioactivity ([1]; EGF absent, control 1152): 488 cpm
Total Phosphoprotein ([1]; EGF present, control 12204): 5332 cpm
P-serine radioactivity ([1]; EGF present, control 494): 262 cpm
P-threonine radioactivity ([1]; EGF present, control 1994): 1270 cpm
P-tyrosine radioactivity ([1]; EGF present, control 18000): 5554 cpm
inhibition of tyrosine phosphorylation (in words) ([1]; both the presence and absence of EGF): pronounced inhibition of tyrosine phosphorylation
% inhibition (p130^fps; 250 nmoles/mg protein): 48%
Activity (cpm), FSV (p130^fps; 250 nmoles/mg protein): 13932 cpm
Activity (cpm), Control (p130^fps; 250 nmoles/mg protein): 2370 cpm
% inhibition (p130^fps; 500 nmoles/mg protein): 69%
Activity (cpm), FSV (p130^fps; 500 nmoles/mg protein): 8344 cpm
Activity (cpm), Control (p130^fps; 500 nmoles/mg protein): 2180 cpm
Immune Complex Phosphorylation, specific phosphorylation (in parentheses) (p130^fps; p130fps + anti-gag serum, 250 nmoles per mg protein, no inhibitor 20104): 6324 cpm
Immune Complex Phosphorylation (p130^fps; p130fps + anti-gag serum, 250 nmoles per mg protein, no inhibitor 29244): 15222 cpm
Immune Complex Phosphorylation (p130^fps; p130fps + control serum, 250 nmoles per mg protein, no inhibitor 9140): 8898 cpm
Immune Complex Phosphorylation (p130^fps; related experiment with 1 mg/mL casein, p130fps + anti-gag serum, no inhibitor 7663): 1656 cpm
Immune Complex Phosphorylation (p130^fps; related experiment with 1 mg/mL casein, p130fps + control serum, no inhibitor 1184): 1286 cpm
% Growth Relative to Control Cultures (lymphoma cell line YAC-1; 0.4 μg/mL, day 4): 97%
% Growth Relative to Control Cultures (lymphoma cell line YAC-1; 2.0 μg/mL, day 1): 42%
% Growth Relative to Control Cultures (lymphoma cell line YAC-1; 2.0 μg/mL, day 2): 31%
% Growth Relative to Control Cultures (lymphoma cell line YAC-1; 2.0 μg/mL, day 3): 28%
% Growth Relative to Control Cultures (lymphoma cell line YAC-1; 2.0 μg/mL, day 4): 12%
% Growth Relative to Control Cultures (lymphoma cell line YAC-1; 2.0 μg/mL, day 7): 28%
% Growth Relative to Control Cultures (lymphoma cell line YAC-1; 10. μg/mL, day 1): 67%
% Growth Relative to Control Cultures (lymphoma cell line YAC-1; 10. μg/mL, day 2): 32%
% Growth Relative to Control Cultures (lymphoma cell line YAC-1; 10. μg/mL, day 3): 22%
% Growth Relative to Control Cultures (lymphoma cell line YAC-1; 10. μg/mL, day 4): 13%
% Growth Relative to Control Cultures (lymphoma cell line YAC-1; 10. μg/mL, day 7): 16%
% Growth Relative to Control Cultures ([2]; 0.4 μg/mL, day 3): 70%
% Growth Relative to Control Cultures ([2]; 0.4 μg/mL, day 7): 85%
% Growth Relative to Control Cultures ([2]; 2.0 μg/mL, day 1): 53%
% Growth Relative to Control Cultures ([2]; 2.0 μg/mL, day 2): 22%
% Growth Relative to Control Cultures ([2]; 2.0 μg/mL, day 3): 19%
% Growth Relative to Control Cultures ([2]; 2.0 μg/mL, day 4): 16%
% Growth Relative to Control Cultures ([2]; 2.0 μg/mL, day 7): 69%
% Growth Relative to Control Cultures ([2]; 10. μg/mL, day 1): 33%
% Growth Relative to Control Cultures ([2]; 10. μg/mL, day 2): 22%
% Growth Relative to Control Cultures ([2]; 10. μg/mL, day 3): 7%
% Growth Relative to Control Cultures ([2]; 10. μg/mL, day 4): 17%
% Growth Relative to Control Cultures ([2]; 10. μg/mL, day 7): 13%
